In this experiment the target is T1, angiotensin II receptor (Oryctolagus cuniculus, UniProt P34976).
T1 construct: Main abdominal aortas were removed and placed in Krebs-Henseleit buffer; from tissue; host or cells: main abdominal aorta rings (3 mm) of female New Zealand White rabbits
T1 sequence (P34976 1-359): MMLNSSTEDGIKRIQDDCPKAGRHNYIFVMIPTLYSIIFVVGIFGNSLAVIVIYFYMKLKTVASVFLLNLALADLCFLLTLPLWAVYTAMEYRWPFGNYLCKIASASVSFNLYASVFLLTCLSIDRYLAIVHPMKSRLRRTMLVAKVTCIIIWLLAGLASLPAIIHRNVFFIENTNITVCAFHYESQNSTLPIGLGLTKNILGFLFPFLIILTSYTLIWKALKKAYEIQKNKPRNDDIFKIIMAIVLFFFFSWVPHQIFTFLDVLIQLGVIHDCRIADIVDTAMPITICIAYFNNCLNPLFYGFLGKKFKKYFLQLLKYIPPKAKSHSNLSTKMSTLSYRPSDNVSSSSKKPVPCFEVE
In words: Angiotensin II functional assay: antagonism of contraction of rabbit aorta (isolated tissue, Schild analysis). The note with it: antagonist incubated 30 minutes, negative logarithm of antagonist concentration that requires doubling of the angiotensin II concentration; for Kb: read-out: pA2 (converted). Details: species or system rabbit (female New Zealand White). The protocol:
Antagonism of Contraction of Rabbit Aorta The protocol reported by A. T Chiu and […]. Wong, et al. Hypertension, 13, 489-497 (1989)) was followed with a few modifications. Female New Zealand White rabbits weighing 2-5 kg were sedated with carbon dioxide and then sacrificed. Main abdominal aortas were removed and placed in Krebs-Henseleit buffer at room temperature. The tissues were cleaned of extraneous connective tissue, cut into 3 mm rings, and suspended within a 10 mL tissue bath. All dilutions of peptide preparations were made with 0.3% aqueous BSA. The tissues were primed with 55 mM potassium chloride. Tissues were pre-loaded with 1 g of tension. Tension was recorded on a model 7 Grass polygraph using FT03 transducers. At the end of the equilibrium period, a control cumulative concentration-contractile response curve for angiotensin II (A II: 1×10^-10 -10^-8 M) was obtained. The tissue was washed several times until the baseline was reached. Forty five minutes later, test compound (antagonist) was added and the tissue was incubated for 30 minutes. The concentration-response curve for A II was then repeated in the presence of the test compound. One dose of antagonist was tested per tissue only. […] All responses to the control agonist were calculated as a percentage of the maximum response.

The values that follow come from patent US5250548A, “Angiotensin II receptor antagonists” (Abbott Laboratories, priority 1992, dated 1993).

One may read the pA2 as the negative logarithm of the molar antagonist concentration that doubles the agonist concentration needed for the same response. Read a high pA2 as a more potent antagonist.

Structures can show the parent of a compound that is named as a salt.

Regarding `CCCCN(Cc1ccc(-c2ccccc2-c2nnn[nH]2)cc1)c1ncncc1C(=O)OCOC(=O)C(C)(C)C` [Example 82, Pivaloyloxymethyl 4-{N-butyl-N-[(2'-[1H-tetrazol-5-yl]biphenyl-4-yl)methyl]amino}pyrimidine-5-carboxylate], the Kb was 0.331 nM.

With `O=C(O)c1cccnc1N(Cc1ccc(-c2ccccc2-c2nn[nH]n2)cc1)CC1CC1` [Example 206, 2-{N-Cyclopropylmethyl-N-[ (2'-[1H-tetrazol-5-yl]biphenyl-4-yl)methyl]amino}pyridine-3-carboxylic acid], the pA2 came to 8.93.

For `CCCCN(Cc1ccc(-c2ccccc2-c2nn[nH]n2)cc1)c1nccnc1C(=O)O` [Example 157, 3-{N-Butyl-N-[(2'-[1H-tetrazol-5-yl]biphenyl-4-yl)methyl]amino}pyrazine-2-carboxylic acid], the Kb was 0.135 nM.

In the case of `CCCCN(Cc1ccc(-c2ccccc2-c2nnn[nH]2)cc1)c1nc(OC)ccc1C(=O)O` [Example 163, 2-{N-Butyl-N-[(2' -[1H-tetrazol-5-yl]biphenyl-4-yl)methyl]amino}-6-methoxypyridine-3-carboxylic acid], the Kb is 0.309 nM.

`CCCN(Cc1ccc(-c2ccccc2-c2nn[nH]n2)cc1)c1ncc(F)cc1C(=O)O` [Example 180, 5-Fluoro-2-{N-propyl-N-[(2'-[1H-tetrazol-5-yl]biphenyl-4-yl)methyl]amino}pyridine-3-carboxylic acid]: the Kb was 0.912 nM.

Take `CCCCN(Cc1ccc(-c2ccccc2-c2nn[nH]n2)cc1)c1nnc(Cl)cc1C(=O)O` [Example 168, 6-{N-Butyl-N-[(2'-[1H-tetrazol-5-yl]biphenyl-4-yl)methyl]amino}-3-chloropyridazine-5-carboxylic acid]: the Kb is 0.851 nM.

`CCCN(Cc1ccc(-c2ccccc2-c2nn[nH]n2)cc1)c1ncncc1C(=O)O` [Example 71, 4-{N-Propyl-N-[(2'-[1H-tetrazol-5yl]biphenyl-4-yl)methyl]amino}pyrimidine-5-carboxylic acid hydrochloride]: the Kb was 0.209 nM.

Consider `CCCN(Cc1ccc(-c2ccccc2-c2nn[nH]n2)cc1)c1ncccc1NS(=O)(=O)C(F)(F)F` [Example 147, 3-Trifluoromethanesulfonamido-2-{N-propyl-N-[(2'-[1H-tetrazol-5-yl]biphenyl-4-yl)methyl]amino}pyridine], for which the Kb is 0.631 nM.

Regarding `CCCN(Cc1ccc(-c2ccccc2-c2nn[nH]n2)cc1)c1ncccc1C(=O)NS(=O)(=O)c1ccccc1` [Example 203, 2-{N-Propyl-N-[(2'-[1H-tetrazol-5-yl]biphenyl-4-yl)methyl]amino}pyridine-3-(N-benzenesulfonyl)carboxamide], the Kb was 2.24 nM.

For `CCCCN(Cc1ccc(-c2ccccc2-c2nnn[nH]2)cc1)c1ncncc1C(=O)OC(C)OC(=O)C1CCN(C)CC1` (stereo not shown) [Example 121, 1-(1-Methylpiperidin-4-ylcarbonyloxy)ethyl 4-{N-butyl-N-[(2'-[1H-tetrazol-5-yl]biphenyl-4-yl)methyl]amino}pyrimidine-5-carboxylate], the Kb was 0.257 nM.

For `CCCN(Cc1ccc(-c2ccccc2-c2nn[nH]n2)cc1)c1nc(F)ccc1C(=O)O` [Example 160, 2-{N-Propyl-N-[(2'-[1H-tetrazol-5-yl]biphenyl-4-yl)methyl]amino}-6-fluoropyridine-3-carboxylic acid], the Kb is 0.234 nM.

As for `CCCCN(Cc1ccc(-c2ccccc2-c2nnn[nH]2)cc1)c1ncncc1C(=O)O` [Example 53, 4-{N-butyl-N-[(2'-[1H-tetrazol-5-yl]biphenyl-4-yl)methyl]amino}pyrimidine-5-carboxylic acid hydrochloride], the Kb is 0.126 nM.

In the case of `CCCN(Cc1ccc(-c2ccccc2-c2nn[nH]n2)cc1)c1nccc(C)c1C(=O)O` [Example 194, 4-Methyl-2-{N-propyl-N-[(2'-[1H-tetrazol-5-yl]biphenyl-4-yl)methyl]amino}pyridine-3-carboxylic acid], the Kb was 0.229 nM.
